These results are taken from article PMC8534003, “The Chemokine-Based Peptide, CXCL9(74-103), Inhibits Angiogenesis by Blocking Heparan Sulfate Proteoglycan-Mediated Signaling of Multiple Endothelial Growth Factors” (Cancers, 2021).

By koff is commonly meant the first-order rate constant of dissociation. A lower koff goes with a long-lived complex. One may read the kon as a measure of how fast the partners come together. The low end stands for slow association, the high end for fast association.

Where no end group is shown, it is not given here.

Data set [1] addresses T1, FGF-2 (Homo sapiens, UniProt P09038).
T1 construct: purchased R&D Systems
Kind of data set: Grating-coupled interferometry (GCI). The data set is classed as binding. The conditions noted are these: FGF-2 over immobilized biotinylated CXCL9(74-103), 25 °C, pH 7.4; mean ± SEM, n = 3. The procedure: GCI experiments were performed on a Creoptix WAVEdelta system (Creoptix AG, Wädenswil, Switzerland), which is a label-free surface biosensor system for the characterization of molecular interactions. 4PCP-STA chips (Creoptix AG) were used, which contain a quasi-planar polycarboxyl-matrix with pre-immobilized streptavidin. The running buffer for the experiments was PBS supplemented with 30 mM NaCl, 15 mM L-Arginine, 0.015% (v/v) Tween® 20 and 0.05 mg/mL BSA at pH 7.4 for reducing nonspecific binding. Chips were conditioned using borate buffer (100 mM sodium borate, 1 M NaCl, pH 9.0). Capture was performed by injecting biotinylated CXCL9(74-103) at a concentration of 2 µg/mL and a flow rate of 10 µL/minute over the chip surface, until a density of +/− 160 was reached. After capture of biotinylated CXCL9(74-103), binding with FGF-2 was studied by injecting an FGF-2 concentration series over the chip surface. […] A reference channel was blocked in the same way. Injections of the FGF-2 analyte were performed at 25 °C, with an association and dissociation time of 120 seconds and a flow rate of 40 µL/min. Absence of mass-transport limitation was verified by repeating the experiment at 50 µL/minute. A 1:3 dilution series with six dilutions (4.53 nM, 13.6 nM, 40.7 nM, 122 nM, 367 nM, 1.10 µM; all in duplicate) was analyzed. […]

In the next data set the test system is HMVECs. Kind of data set: In vitro toxicity assay (LIVE/DEAD viability/cytotoxicity). The class given is cell-based, human. To be noted: 0.3 or 3 µM, 24 h, calcein-AM/EthD-1, n = 4. The procedure:
HMVECs were seeded in MCDB131 medium supplemented with 3% (v/v) FCS at 8 × 10^3 cells/well in a black, clear bottom 96-well plate coated with 0.1% (v/v) gelatin in PBS. The next day, cells were washed and incubated with control medium (vide supra) alone or in the presence of 0.3 or 3 µM of CXCL9(74-103) or CXCL9(86-103) for 24 h. The negative control cells were treated with 2% (v/v) Triton™ X-100 to induce cell death […] after the start of the experiment, i.e., 1 h prior to the addition of the LIVE/DEAD stain. The toxicity of the peptides was assessed using the LIVE/DEAD viability/cytotoxicity kit (Invitrogen, Carlsbad, CA, USA), according to the manufacturer’s instructions. At 24 h, calcein-acetoxymethyl ester (AM) and ethidium homodimer-1 (EthD-1) in 0.4% (v/v) FCS in DMEM FluoroBrite (Gibco) were added to all wells and the fluorescence was measured in the IncuCyte S3 live cell imaging system (Essen BioScience, Ltd.; Newark, UK).

In data set [2] the test system is FGF-2. The conditions noted are these: cited from earlier work. The text has this: Earlier studies that report on targeting HS-mediated interactions most commonly rely on HS mimetics that either mask HS for GF binding or directly interact with the GF, preventing it from binding to HS [39]. […] Pagano et al. reported that the small molecule inhibitor SM27, derived from the FGF-2-binding region of thrombospondin-1 (TSP-1), selectively bound the heparin-binding site of FGF-2 ...

In data set [3] the test system is EGFR and α3β1 integrin / syndecan-4. To be noted: cited from earlier work. The text has this:
Syndecan-4, the most abundant mammalian syndecan, has been described to function as an independent receptor for several heparin-binding growth factors such as FGFs, VEGFs and PDGFs. Upon ligand binding, the HSPGs oligomerize and initiate signaling components such as mammalian target of rapamycin (mTOR), RAC-α serine/threonine-protein kinase (AKT1) and the Rho family of GTPases, which are r ...

T1 sequence (P09038 143-288): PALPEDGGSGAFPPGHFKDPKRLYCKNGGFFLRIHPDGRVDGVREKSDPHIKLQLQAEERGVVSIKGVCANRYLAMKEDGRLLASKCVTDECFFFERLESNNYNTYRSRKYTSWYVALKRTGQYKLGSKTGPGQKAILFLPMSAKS

At FGF-2 [1], “KKKQKNGKKHQKKKVLKVRKSQRSRQKKTT [CXCL9(74-103)]” returned an off-rate (koff) of 0.00207 s⁻¹ and a kon of 20000 M⁻¹ s⁻¹. The “cell viability / toxicity” value with HMVECs is “without inducing any cell toxicity”.
For “TSP-2: another TSP (thrombospondin) with anti-angiogenic activity”, the “interaction with FGF-2” value in the data set with FGF-2 [2] was “able to interact with FGF-2 and interfered with HS and FGFR1 binding”.
Take “synstatin (SSTNEGFR): a peptide based on the EGFR interaction motifs”: the “displacement from syndecan and cell migration” value in data set [3] is “displaces the RTK and α3β1 integrin from the syndecan and prevents cell migration”.
